Data taken from PMC6804997 (PLoS ONE, 2019).

What was measured:
HK-2 cells = test: Western blot of myoglobin-stimulated HK-2 cells; assay type: cell-based, Human
Method: Kidney tissue or cultured cell samples were sufficiently lysed in the mixture of RIPA buffer (50 mM Tris (pH7.4), 150 mM NaCl, 1% TritonX-100, 1% sodium deoxycholate, 0.1% SDS) containing 4% cocktail proteinase inhibitor (Roche, Switzerland) on ice. After centrifuged at 13,000 rpm for 15 min at 4°C, supernate of the homogenate were collected for protein quantification. Protein equivalent to 50 ug were loaded into 10–12% SDS-PAGE gels for electrophoretic separation, and then transferred to polyvinylidene difluoride (PVDF) membranes (0.2 μm, Bio-Rad Laboratories, Inc.). After protein blotting, membranes were blocks using 5% non-fat dried milk for 1h at room temperature, then probed with primary antibodies at 4°C overnight, and incubated with secondary antibodies for 1h at room temperature. […] Immunoblots were visualized with the Immobilon Western Chemiluminescent HRP Substrate (Millipore Corporation, Billerica, MA, United States) and measured with Bio-Rad Chemi Doc MP. […]

HDAC4 = HDAC4 (Homo sapiens, UniProt P56524); test: HDAC enzyme inhibition assay (Ac-peptide-AMC substrate); assay type: biochemical
Method: (§1) HDACs inhibition assay of F7 was performed utilizing 4-amino-7-methylcoumarin (AMC) labeled Ac-peptide (Ac-peptide-AMC) substrates, a service provided by Chempartner Company (Shanghai, China).
(§2) This assay was performed was performed utilizing 4-amino-7-methylcoumarin (AMC) labeled Ac-peptide (Ac-peptide-AMC) substrates, a service provided by Chempartner Company (Shanghai, China).

HDAC5 = HDAC5 (Homo sapiens, UniProt Q9UQL6); test: as above; assay type: biochemical
Method: as §1, §2

HDAC6 = target: T1, HDAC6 (Homo sapiens, UniProt Q9UBN7); test: as above; assay type: biochemical
T1 sequence (Q9UBN7 1-1215): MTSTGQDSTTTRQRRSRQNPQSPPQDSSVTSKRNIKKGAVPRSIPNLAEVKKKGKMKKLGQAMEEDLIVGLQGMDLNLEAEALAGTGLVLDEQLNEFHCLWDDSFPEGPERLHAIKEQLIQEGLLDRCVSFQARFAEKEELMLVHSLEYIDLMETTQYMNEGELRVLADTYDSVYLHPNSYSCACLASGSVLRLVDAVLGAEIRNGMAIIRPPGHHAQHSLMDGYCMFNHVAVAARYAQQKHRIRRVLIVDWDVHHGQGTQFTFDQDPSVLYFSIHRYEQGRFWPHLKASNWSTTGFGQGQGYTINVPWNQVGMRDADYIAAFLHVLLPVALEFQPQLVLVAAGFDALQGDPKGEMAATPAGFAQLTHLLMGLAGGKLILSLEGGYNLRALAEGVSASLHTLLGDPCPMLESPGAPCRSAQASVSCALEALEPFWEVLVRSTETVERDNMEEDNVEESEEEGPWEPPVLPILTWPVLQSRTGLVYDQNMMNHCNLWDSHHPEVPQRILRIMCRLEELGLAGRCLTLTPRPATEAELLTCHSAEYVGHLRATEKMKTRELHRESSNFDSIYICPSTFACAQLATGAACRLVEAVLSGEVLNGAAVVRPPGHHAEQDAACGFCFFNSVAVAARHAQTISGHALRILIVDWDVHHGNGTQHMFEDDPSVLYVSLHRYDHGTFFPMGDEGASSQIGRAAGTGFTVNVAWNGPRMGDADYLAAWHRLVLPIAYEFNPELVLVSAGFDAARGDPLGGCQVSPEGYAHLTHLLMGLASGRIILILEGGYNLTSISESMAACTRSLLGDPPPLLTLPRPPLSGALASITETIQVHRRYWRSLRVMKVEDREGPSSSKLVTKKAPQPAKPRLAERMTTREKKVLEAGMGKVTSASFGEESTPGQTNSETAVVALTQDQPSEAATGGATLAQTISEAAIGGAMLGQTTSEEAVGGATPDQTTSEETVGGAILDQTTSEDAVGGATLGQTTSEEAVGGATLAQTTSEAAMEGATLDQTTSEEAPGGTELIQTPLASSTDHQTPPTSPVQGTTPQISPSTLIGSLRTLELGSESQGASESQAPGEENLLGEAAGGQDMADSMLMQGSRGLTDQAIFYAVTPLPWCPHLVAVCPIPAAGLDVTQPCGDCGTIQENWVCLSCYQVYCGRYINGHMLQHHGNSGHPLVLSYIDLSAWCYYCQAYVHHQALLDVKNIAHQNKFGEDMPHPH
Method: as §1, §2

Chain of HDAC4 (P56524 whole entry, species assumed): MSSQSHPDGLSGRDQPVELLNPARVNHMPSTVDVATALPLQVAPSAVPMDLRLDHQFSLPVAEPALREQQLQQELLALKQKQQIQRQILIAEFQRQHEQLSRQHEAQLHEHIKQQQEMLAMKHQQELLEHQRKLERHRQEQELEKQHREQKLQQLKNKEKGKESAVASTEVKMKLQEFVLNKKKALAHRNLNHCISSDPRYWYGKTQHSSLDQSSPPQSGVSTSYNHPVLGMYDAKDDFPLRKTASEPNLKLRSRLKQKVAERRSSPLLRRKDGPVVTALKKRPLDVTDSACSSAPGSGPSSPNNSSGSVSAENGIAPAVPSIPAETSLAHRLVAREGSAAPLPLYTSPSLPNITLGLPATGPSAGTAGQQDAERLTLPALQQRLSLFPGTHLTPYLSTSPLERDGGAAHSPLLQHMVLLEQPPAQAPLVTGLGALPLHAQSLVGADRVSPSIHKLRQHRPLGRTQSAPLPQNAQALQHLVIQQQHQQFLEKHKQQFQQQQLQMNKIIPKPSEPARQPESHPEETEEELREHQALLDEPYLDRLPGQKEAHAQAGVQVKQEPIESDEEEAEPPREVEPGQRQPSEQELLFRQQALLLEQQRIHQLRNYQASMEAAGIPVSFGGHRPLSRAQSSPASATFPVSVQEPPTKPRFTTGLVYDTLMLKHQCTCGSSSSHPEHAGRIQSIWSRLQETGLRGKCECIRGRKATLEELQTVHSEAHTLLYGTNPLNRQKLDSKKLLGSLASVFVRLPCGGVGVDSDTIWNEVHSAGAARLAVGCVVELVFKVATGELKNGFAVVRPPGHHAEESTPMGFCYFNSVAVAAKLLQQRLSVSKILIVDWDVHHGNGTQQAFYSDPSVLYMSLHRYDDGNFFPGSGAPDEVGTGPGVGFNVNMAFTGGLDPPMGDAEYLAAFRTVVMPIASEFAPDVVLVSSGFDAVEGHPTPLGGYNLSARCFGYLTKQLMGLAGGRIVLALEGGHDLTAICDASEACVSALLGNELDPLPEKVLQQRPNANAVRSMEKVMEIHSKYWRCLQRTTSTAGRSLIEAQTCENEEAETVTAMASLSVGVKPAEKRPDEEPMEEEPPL
Chain of HDAC5 (Q9UQL6 whole entry, species assumed): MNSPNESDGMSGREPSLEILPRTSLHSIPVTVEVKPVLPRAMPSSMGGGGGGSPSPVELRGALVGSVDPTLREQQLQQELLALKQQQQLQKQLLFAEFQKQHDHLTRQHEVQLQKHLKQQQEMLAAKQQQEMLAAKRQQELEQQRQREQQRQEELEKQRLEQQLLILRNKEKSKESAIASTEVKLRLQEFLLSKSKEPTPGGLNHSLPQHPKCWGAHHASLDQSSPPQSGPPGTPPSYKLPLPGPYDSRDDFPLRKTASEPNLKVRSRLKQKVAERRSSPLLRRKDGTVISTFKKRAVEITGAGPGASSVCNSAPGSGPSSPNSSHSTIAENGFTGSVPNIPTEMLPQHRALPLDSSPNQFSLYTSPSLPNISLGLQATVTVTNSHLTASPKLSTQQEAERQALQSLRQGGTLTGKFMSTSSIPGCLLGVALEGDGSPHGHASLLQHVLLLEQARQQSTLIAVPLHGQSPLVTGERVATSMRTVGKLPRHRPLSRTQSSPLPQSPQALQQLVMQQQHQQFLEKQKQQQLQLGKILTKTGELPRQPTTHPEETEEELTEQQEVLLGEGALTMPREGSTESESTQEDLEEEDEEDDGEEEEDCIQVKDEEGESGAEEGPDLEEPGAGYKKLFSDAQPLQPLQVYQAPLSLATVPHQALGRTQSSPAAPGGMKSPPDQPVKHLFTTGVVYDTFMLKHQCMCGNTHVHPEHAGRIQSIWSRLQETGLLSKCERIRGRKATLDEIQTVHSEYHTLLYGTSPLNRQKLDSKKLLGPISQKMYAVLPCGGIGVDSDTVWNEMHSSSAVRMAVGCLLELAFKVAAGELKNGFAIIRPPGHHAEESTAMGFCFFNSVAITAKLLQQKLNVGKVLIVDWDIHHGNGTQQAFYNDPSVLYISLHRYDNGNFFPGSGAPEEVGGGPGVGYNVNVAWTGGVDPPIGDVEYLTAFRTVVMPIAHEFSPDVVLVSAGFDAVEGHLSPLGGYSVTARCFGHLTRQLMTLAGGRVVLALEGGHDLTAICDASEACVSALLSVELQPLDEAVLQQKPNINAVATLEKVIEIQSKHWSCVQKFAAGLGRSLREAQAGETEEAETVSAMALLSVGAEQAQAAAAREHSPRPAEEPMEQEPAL

What does the source list for `Cc1nc(N(C)c2ccc(Oc3ccc(C(=O)NO)cn3)cc2)c2ccccc2n1` [F7, N-hydroxy-6-(4-(methyl(2-methylquinazolin-4-yl)amino)phenoxy)nicotinamide]?
HDAC6 expression in vitro (HK-2 cells): effectively inhibited; inflammation in HK-2 cells (NF-κB pathway activation) (HK-2 cells): ameliorated; IC50 (HDAC4): > 10 µM; IC50 (HDAC5): > 10 µM; HDAC6 inhibition efficacy of F7 compared with 23BB (HDAC6): three times higher; IC50 (HDAC6): 0.0058 µM; selectivity of HDAC6 versus other HDACs (HDAC6): 110-1724 times
